Data as given in article PMC7156458, “Synthetic biology based construction of biological activity-related library of fungal decalin-containing diterpenoid pyrones” (Nature Communications, 2020).

Molecular target: Aβ42 (Homo sapiens, UniProt P05067)
Assay: Th-T (thioflavin-T) assay of Aβ42 aggregation
Assay type: biochemical

Sequence of Aβ42 (P05067 672-713): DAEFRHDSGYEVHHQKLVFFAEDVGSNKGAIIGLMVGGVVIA

## C=C1CC[C@@H]2[C@](C)(CC[C@H]3O[C@H](C=C(C)C)C[C@@]23C)[C@@H]1Cc1c(OC)oc(CO)c(C(=O)OC)c1=O [Compound 21]
Column suffix _20, reading M101
  Fig. 7a Th-T reading, mean of three wells: 0.9158
Column suffix _20, reading M102
  Fig. 7a Th-T reading, mean of three wells: 0.9188
Column suffix _20, reading M103
  Fig. 7a Th-T reading, mean of three wells: 0.9187
Column suffix _20, reading M104
  Fig. 7a Th-T reading, mean of three wells: 0.9595
Column suffix _20, reading M105
  Fig. 7a Th-T reading, mean of three wells: 0.9387
Column suffix _20, reading M106
  Fig. 7a Th-T reading, mean of three wells: 0.9399
Column suffix _50, measurement M19
  Th-T fluorescence, mean of three wells (Fig. 7a): 0.2078
Column suffix _50, measurement M20
  Th-T fluorescence, mean of three wells (Fig. 7a): 0.2087
Column suffix _50, measurement M21
  Th-T fluorescence, mean of three wells (Fig. 7a): 0.2125
Column suffix _50, measurement M22
  Th-T fluorescence, mean of three wells (Fig. 7a): 0.212
Column suffix _50, measurement M23
  Th-T fluorescence, mean of three wells (Fig. 7a): 0.2107
Column suffix _50, measurement M24
  Th-T fluorescence, mean of three wells (Fig. 7a): 0.2101
Column suffix _50, measurement M25
  Th-T fluorescence, mean of three wells (Fig. 7a): 0.2098
Column suffix _50, measurement M26
  Th-T fluorescence, mean of three wells (Fig. 7a): 0.2113
Column suffix _50, measurement M27
  Th-T fluorescence, mean of three wells (Fig. 7a): 0.2118
Column suffix _50, measurement M28
  Th-T fluorescence, mean of three wells (Fig. 7a): 0.2093
Column suffix _50, measurement M29
  Th-T fluorescence, mean of three wells (Fig. 7a): 0.2091
Column suffix _50, reading M1
  Th-T assay signal, mean of three wells (Fig. 7a): 0.2216
Column suffix _50, reading M2
  Th-T assay signal, mean of three wells (Fig. 7a): 0.219
Column suffix _50, reading M3
  Th-T assay signal, mean of three wells (Fig. 7a): 0.2148
Column suffix _50, reading M4
  Th-T assay signal, mean of three wells (Fig. 7a): 0.2093
Column suffix _50, reading M5
  Th-T assay signal, mean of three wells (Fig. 7a): 0.2111
Column suffix _50, reading M6
  Th-T assay signal, mean of three wells (Fig. 7a): 0.209
Column suffix _50, reading M7
  Th-T assay signal, mean of three wells (Fig. 7a): 0.2096
Column suffix _50, reading M8
  Th-T assay signal, mean of three wells (Fig. 7a): 0.2075
Column suffix _50, reading M9
  Th-T assay signal, mean of three wells (Fig. 7a): 0.2085
Column suffix _50, reading M10
  Th-T assay signal, mean of three wells (Fig. 7a): 0.2097
Column suffix _50, reading M11
  Th-T assay signal, mean of three wells (Fig. 7a): 0.2085
Column suffix _50, reading M12
  Th-T assay signal, mean of three wells (Fig. 7a): 0.2082
Column suffix _50, reading M13
  Th-T assay signal, mean of three wells (Fig. 7a): 0.2085
Column suffix _50, reading M14
  Th-T assay signal, mean of three wells (Fig. 7a): 0.2061
Column suffix _50, reading M15
  Th-T assay signal, mean of three wells (Fig. 7a): 0.2099
Column suffix _50, reading M16
  Th-T assay signal, mean of three wells (Fig. 7a): 0.2095
Column suffix _50, reading M17
  Th-T assay signal, mean of three wells (Fig. 7a): 0.2108
Column suffix _50, reading M18
  Th-T assay signal, mean of three wells (Fig. 7a): 0.2093
Column suffix _50, reading M85
  Fig. 7a Th-T reading, mean of three wells: 0.38
Column suffix _50, reading M86
  Fig. 7a Th-T reading, mean of three wells: 0.3921
Column suffix _50, reading M87
  Fig. 7a Th-T reading, mean of three wells: 0.401
Column suffix _50, reading M88
  Fig. 7a Th-T reading, mean of three wells: 0.4081
Column suffix _50, reading M89
  Fig. 7a Th-T reading, mean of three wells: 0.4167
Column suffix _50, reading M90
  Fig. 7a Th-T reading, mean of three wells: 0.4233
Column suffix _50, reading M91
  Fig. 7a Th-T reading, mean of three wells: 0.4313
Column suffix _50, reading M92
  Fig. 7a Th-T reading, mean of three wells: 0.4386
Column suffix _50, reading M93
  Fig. 7a Th-T reading, mean of three wells: 0.4449
Column suffix _50, reading M94
  Fig. 7a Th-T reading, mean of three wells: 0.4505
Column suffix _50, reading M95
  Fig. 7a Th-T reading, mean of three wells: 0.4544
Column suffix _50, reading M96
  Fig. 7a Th-T reading, mean of three wells: 0.4583
Column suffix _50, reading M97
  Fig. 7a Th-T reading, mean of three wells: 0.4639
Column suffix _50, reading M98
  Fig. 7a Th-T reading, mean of three wells: 0.4638
Column suffix _50, reading M99
  Fig. 7a Th-T reading, mean of three wells: 0.4696
Column suffix _50, reading M100
  Fig. 7a Th-T reading, mean of three wells: 0.4671
Column suffix _50, reading M101
  Fig. 7a Th-T reading, mean of three wells: 0.4718
Column suffix _50, reading M102
  Fig. 7a Th-T reading, mean of three wells: 0.4727
Column suffix _50, reading M103
  Fig. 7a Th-T reading, mean of three wells: 0.4762
Column suffix _50, reading M104
  Fig. 7a Th-T reading, mean of three wells: 0.4757
Column suffix _50, reading M105
  Fig. 7a Th-T reading, mean of three wells: 0.4769
Column suffix _50, reading M106
  Fig. 7a Th-T reading, mean of three wells: 0.4817
Compound at 10, reading M41 of time course
  Th-T fluorescence, mean of three wells: 0.2566
Compound at 10, reading M42 of time course
  Th-T fluorescence, mean of three wells: 0.2579
Compound at 10, reading M43 of time course
  Th-T fluorescence, mean of three wells: 0.2567
Compound at 10, reading M44 of time course
  Th-T fluorescence, mean of three wells: 0.2585
Compound at 10, reading M45 of time course
  Th-T fluorescence, mean of three wells: 0.2609
Compound at 10, reading M46 of time course
  Th-T fluorescence, mean of three wells: 0.2644
Compound at 10, reading M47 of time course
  Th-T fluorescence, mean of three wells: 0.2626
Compound at 10, reading M48 of time course
  Th-T fluorescence, mean of three wells: 0.2676
Compound at 10, reading M49 of time course
  Th-T fluorescence, mean of three wells: 0.2662
Compound at 10, reading M50 of time course
  Th-T fluorescence, mean of three wells: 0.2709
Compound at 10, reading M51 of time course
  Th-T fluorescence, mean of three wells: 0.2759
Compound at 10, reading M52 of time course
  Th-T fluorescence, mean of three wells: 0.2782
Compound at 10, reading M53 of time course
  Th-T fluorescence, mean of three wells: 0.2826
Compound at 10, reading M54 of time course
  Th-T fluorescence, mean of three wells: 0.2883
Compound at 10, reading M55 of time course
  Th-T fluorescence, mean of three wells: 0.2969
Compound at 10, reading M56 of time course
  Th-T fluorescence, mean of three wells: 0.3032
Compound at 10, reading M57 of time course
  Th-T fluorescence, mean of three wells: 0.3204
Compound at 10, reading M58 of time course
  Th-T fluorescence, mean of three wells: 0.3339
Compound at 10, reading M59 of time course
  Th-T fluorescence, mean of three wells: 0.3536
Compound at 10, reading M60 of time course
  Th-T fluorescence, mean of three wells: 0.3831
Compound at 10, reading M61 of time course
  Th-T fluorescence, mean of three wells: 0.414
Compound at 10, reading M62 of time course
  Th-T fluorescence, mean of three wells: 0.4619
Compound at 20, reading M41 of time course
  Th-T fluorescence, mean of three wells: 0.2134
Compound at 20, reading M42 of time course
  Th-T fluorescence, mean of three wells: 0.2125
Compound at 20, reading M43 of time course
  Th-T fluorescence, mean of three wells: 0.2115
Compound at 20, reading M44 of time course
  Th-T fluorescence, mean of three wells: 0.212
Compound at 20, reading M45 of time course
  Th-T fluorescence, mean of three wells: 0.2129
Compound at 20, reading M46 of time course
  Th-T fluorescence, mean of three wells: 0.214
Compound at 20, reading M47 of time course
  Th-T fluorescence, mean of three wells: 0.2155
Compound at 20, reading M48 of time course
  Th-T fluorescence, mean of three wells: 0.2155
Compound at 20, reading M49 of time course
  Th-T fluorescence, mean of three wells: 0.2153
Compound at 20, reading M50 of time course
  Th-T fluorescence, mean of three wells: 0.2164
Compound at 20, reading M51 of time course
  Th-T fluorescence, mean of three wells: 0.2208
Compound at 20, reading M52 of time course
  Th-T fluorescence, mean of three wells: 0.2184
Compound at 20, reading M53 of time course
  Th-T fluorescence, mean of three wells: 0.2214
Compound at 20, reading M54 of time course
  Th-T fluorescence, mean of three wells: 0.2246
Compound at 20, reading M55 of time course
  Th-T fluorescence, mean of three wells: 0.224
Compound at 20, reading M56 of time course
  Th-T fluorescence, mean of three wells: 0.2282
Compound at 20, reading M57 of time course
  Th-T fluorescence, mean of three wells: 0.2293
Compound at 20, reading M58 of time course
  Th-T fluorescence, mean of three wells: 0.2297
Compound at 20, reading M59 of time course
  Th-T fluorescence, mean of three wells: 0.2309
Compound at 20, reading M60 of time course
  Th-T fluorescence, mean of three wells: 0.2314
Compound at 20, reading M61 of time course
  Th-T fluorescence, mean of three wells: 0.2372
Compound at 20, reading M62 of time course
  Th-T fluorescence, mean of three wells: 0.2381
Compound at 50, reading M41 of time course
  Th-T fluorescence, mean of three wells: 0.2143
Compound at 50, reading M42 of time course
  Th-T fluorescence, mean of three wells: 0.2133
Compound at 50, reading M43 of time course
  Th-T fluorescence, mean of three wells: 0.2141
Compound at 50, reading M44 of time course
  Th-T fluorescence, mean of three wells: 0.2135
Compound at 50, reading M45 of time course
  Th-T fluorescence, mean of three wells: 0.2151
Compound at 50, reading M46 of time course
  Th-T fluorescence, mean of three wells: 0.2145
Compound at 50, reading M47 of time course
  Th-T fluorescence, mean of three wells: 0.2129
Compound at 50, reading M48 of time course
  Th-T fluorescence, mean of three wells: 0.2151
Compound at 50, reading M49 of time course
  Th-T fluorescence, mean of three wells: 0.2127
Compound at 50, reading M50 of time course
  Th-T fluorescence, mean of three wells: 0.2161
Compound at 50, reading M51 of time course
  Th-T fluorescence, mean of three wells: 0.2181
Compound at 50, reading M52 of time course
  Th-T fluorescence, mean of three wells: 0.2182
Compound at 50, reading M53 of time course
  Th-T fluorescence, mean of three wells: 0.2185
